{
  "source": "ChEMBL document CHEMBL3351771",
  "about": "“Development of inhibitors of the 2C-methyl-D-erythritol 4-phosphate (MEP) pathway enzymes as potential anti-infective agents” (J Med Chem, 2014)",
  "key": {"[1]": {"test": "Inhibition of Arabidopsis thaliana IspD"}, "[2]": {"test": "Inhibition of Escherichia coli IspE"}, "[3]": {"test": "Inhibition of Aquifex aeolicus IspE"}, "[4]": {"test": "Inhibition of Arabidopsis thaliana DXS"}, "[5]": {"system": "Aquifex aeolicus", "test": "Inhibition of Aquifex aeolicus IspH assessed as residual activity at 1 mM"}, "[6]": {"test": "Inhibition of Escherichia coli IspD"}, "[7]": {"target": "T1, 1-deoxy-D-xylulose-5-phosphate synthase (Escherichia coli O127:H6 (strain E2348/69 / EPEC), UniProt B7UJP3)", "T1 sequence (B7UJP3 whole entry)": "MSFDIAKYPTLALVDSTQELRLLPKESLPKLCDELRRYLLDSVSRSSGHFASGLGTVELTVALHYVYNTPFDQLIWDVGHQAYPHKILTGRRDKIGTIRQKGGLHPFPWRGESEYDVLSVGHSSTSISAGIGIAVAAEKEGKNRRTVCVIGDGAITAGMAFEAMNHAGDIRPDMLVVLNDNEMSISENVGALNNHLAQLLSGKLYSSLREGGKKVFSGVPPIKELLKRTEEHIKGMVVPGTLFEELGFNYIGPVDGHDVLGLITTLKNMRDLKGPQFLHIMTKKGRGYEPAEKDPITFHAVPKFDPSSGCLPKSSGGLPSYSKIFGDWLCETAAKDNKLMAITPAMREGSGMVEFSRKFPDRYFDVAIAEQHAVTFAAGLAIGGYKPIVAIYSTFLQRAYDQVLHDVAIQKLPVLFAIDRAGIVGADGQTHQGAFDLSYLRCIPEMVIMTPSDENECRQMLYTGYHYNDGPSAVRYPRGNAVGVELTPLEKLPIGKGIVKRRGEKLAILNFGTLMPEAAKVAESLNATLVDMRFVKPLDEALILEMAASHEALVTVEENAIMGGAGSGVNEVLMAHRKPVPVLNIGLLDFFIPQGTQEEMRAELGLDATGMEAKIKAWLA", "test": "Inhibition of Escherichia coli DXS"}, "[8]": {"test": "Inhibition of Escherichia coli IspG"}, "[9]": {"test": "Inhibition of Plasmodium falciparum NF54 IspE"}, "[10]": {"system": "Escherichia coli", "test": "Induction of Escherichia coli IspF assessed as fold increase in activity at 500 uM"}, "[11]": {"test": "Inhibition of tomato IspE", "set-up": "species or system Solanum lycopersicum"}, "[12]": {"target": "T2, 1-deoxy-D-xylulose-5-phosphate synthase (Deinococcus radiodurans (strain ATCC 13939 / DSM 20539 / JCM 16871 /LMG 4051 / NBRC 15346 / NCIMB 9279 / R1 / VKM B-1422), UniProt Q9RUB5)", "T2 sequence (Q9RUB5 whole entry)": "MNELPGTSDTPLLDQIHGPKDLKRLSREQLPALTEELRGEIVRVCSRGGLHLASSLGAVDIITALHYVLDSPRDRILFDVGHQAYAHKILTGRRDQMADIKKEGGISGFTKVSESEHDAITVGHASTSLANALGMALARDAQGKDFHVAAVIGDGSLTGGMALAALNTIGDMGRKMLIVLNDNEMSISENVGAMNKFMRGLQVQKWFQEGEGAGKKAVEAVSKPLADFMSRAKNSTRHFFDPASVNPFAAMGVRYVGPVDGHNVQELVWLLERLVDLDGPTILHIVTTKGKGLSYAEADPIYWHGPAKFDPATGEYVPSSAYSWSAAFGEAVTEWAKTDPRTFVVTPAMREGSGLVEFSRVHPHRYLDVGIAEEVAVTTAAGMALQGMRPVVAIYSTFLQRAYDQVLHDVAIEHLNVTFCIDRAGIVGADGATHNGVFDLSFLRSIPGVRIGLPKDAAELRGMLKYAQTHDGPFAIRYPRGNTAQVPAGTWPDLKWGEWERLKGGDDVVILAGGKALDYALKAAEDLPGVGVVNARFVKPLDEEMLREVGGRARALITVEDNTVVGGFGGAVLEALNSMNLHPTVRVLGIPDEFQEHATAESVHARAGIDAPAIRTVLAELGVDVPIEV", "test": "Inhibition of Deinococcus radiodurans DXS"}, "[13]": {"target": "T3, 1-deoxy-D-xylulose-5-phosphate synthase (Haemophilus influenzae (strain 86-028NP), UniProt Q4QKG6)", "T3 sequence (Q4QKG6 whole entry)": "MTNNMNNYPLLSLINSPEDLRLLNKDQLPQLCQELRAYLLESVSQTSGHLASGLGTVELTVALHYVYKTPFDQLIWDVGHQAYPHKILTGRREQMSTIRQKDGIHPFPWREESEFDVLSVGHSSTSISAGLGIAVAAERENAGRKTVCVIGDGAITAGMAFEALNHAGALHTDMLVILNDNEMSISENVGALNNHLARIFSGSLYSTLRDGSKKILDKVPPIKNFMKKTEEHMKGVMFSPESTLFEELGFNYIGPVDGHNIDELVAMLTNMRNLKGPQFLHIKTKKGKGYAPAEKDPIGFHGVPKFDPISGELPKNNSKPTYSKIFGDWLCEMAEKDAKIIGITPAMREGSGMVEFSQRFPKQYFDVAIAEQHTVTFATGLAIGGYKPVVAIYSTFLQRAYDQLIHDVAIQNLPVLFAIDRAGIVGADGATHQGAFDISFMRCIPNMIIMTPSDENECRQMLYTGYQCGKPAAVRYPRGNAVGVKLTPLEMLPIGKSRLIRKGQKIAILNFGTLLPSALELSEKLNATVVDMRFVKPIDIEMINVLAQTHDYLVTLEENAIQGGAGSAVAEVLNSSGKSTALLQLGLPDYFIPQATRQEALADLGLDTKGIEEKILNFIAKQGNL", "test": "Inhibition of Haemophilus influenzae DXS"}, "[14]": {"system": "Haemophilus influenzae", "test": "Antimicrobial activity against Haemophilus influenzae", "format": "functional"}, "[15]": {"target": "T4, 1-deoxy-D-xylulose 5-phosphate reductoisomerase (Mycobacterium tuberculosis, UniProt P9WNS1)", "T4 sequence (P9WNS1 whole entry)": "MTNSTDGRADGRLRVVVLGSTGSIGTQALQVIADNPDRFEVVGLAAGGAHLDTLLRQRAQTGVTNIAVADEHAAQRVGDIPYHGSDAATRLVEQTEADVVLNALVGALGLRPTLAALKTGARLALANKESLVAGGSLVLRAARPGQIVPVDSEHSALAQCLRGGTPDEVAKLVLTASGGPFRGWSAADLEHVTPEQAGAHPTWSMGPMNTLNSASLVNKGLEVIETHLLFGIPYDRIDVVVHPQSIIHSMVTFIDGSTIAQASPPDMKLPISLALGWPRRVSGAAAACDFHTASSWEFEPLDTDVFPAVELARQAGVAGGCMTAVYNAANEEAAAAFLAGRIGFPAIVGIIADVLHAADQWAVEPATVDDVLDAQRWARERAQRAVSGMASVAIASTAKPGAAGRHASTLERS", "test": "Inhibition of Mycobacterium tuberculosis Dxr"}, "[16]": {"system": "Mycobacterium tuberculosis", "test": "Antimicrobial activity against Mycobacterium tuberculosis", "format": "functional, organism-based"}},
  "data": [
    {"molecule": "COc1ccc2nc(NC(=O)c3cc(-c4ccccc4O)n[nH]3)sc2c1", "values": [
      {"measurement": "IC50", "setting": "[1]", "value": 1.8, "unit": "µM"}
    ]},
    {"molecule": "Nc1nc(=O)n(C2CCCS2)cc1S(=O)(=O)c1ccccc1", "note": "(stereo unspecified)", "values": [
      {"measurement": "IC50", "setting": "[2]", "value": 220, "unit": "µM"},
      {"measurement": "IC50", "setting": "[3]", "value": "> 500", "unit": "µM"}
    ]},
    {"molecule": "O=C(O)c1ccc(-c2ccc(/C=N/NC3Nc4ccccc4S3)o2)cc1", "note": "(stereo unspecified)", "values": [
      {"measurement": "IC50", "setting": "[4]", "value": 33, "unit": "µM"}
    ]},
    {"molecule": "C/C(=C/CONS(=O)(=O)NC(=O)OC(C)(C)C)CO", "values": [
      {"measurement": "Activity", "setting": "[5]", "value": 61, "unit": "%"}
    ]},
    {"molecule": "Nc1nc(=O)n(C2CCCS2)cc1C#CCNS(=O)(=O)C(=O)[C@@H](O)[C@@H](O)[C@H](O)[C@H](O)CO", "note": "(stereo partly specified)", "values": [
      {"measurement": "IC50", "setting": "[2]", "value": 407, "unit": "µM"},
      {"measurement": "IC50", "setting": "[3]", "value": "> 500", "unit": "µM"}
    ]},
    {"molecule": "O=P(O)(O)OC[C@@H](O)[C@@H](O)CO", "values": [
      {"measurement": "IC50", "setting": "[6]", "value": 1360, "unit": "µM"}
    ]},
    {"molecule": "CC(=O)P(=O)(O)OCc1ccccc1", "values": [
      {"measurement": "Ki", "setting": "[7]", "value": 10.4, "unit": "µM"}
    ]},
    {"molecule": "COc1ccccc1-c1cnc(N)c(C#CCNS(=O)(=O)C2CC2)c1", "values": [
      {"measurement": "IC50", "setting": "[2]", "value": 242, "unit": "µM"}
    ]},
    {"molecule": "COc1ccc(-c2onc(C(F)(F)F)c2-c2ccc(Br)cc2)c(O)c1", "values": [
      {"measurement": "IC50", "setting": "[4]", "value": 32, "unit": "µM"}
    ]},
    {"molecule": "Oc1csc(Nc2nccs2)n1", "values": [
      {"measurement": "IC50", "setting": "[2]", "value": 160, "unit": "µM"}
    ]},
    {"molecule": "CCOP(=O)(O)C(C)=O", "values": [
      {"measurement": "Ki", "setting": "[7]", "value": 6.7, "unit": "µM"}
    ]},
    {"molecule": "C#CCOP(=O)(O)OP(=O)(O)O", "note": "[PROP-2-YNYL DIPHOSPHATE]", "values": [
      {"measurement": "IC50", "setting": "[8]", "value": 0.75, "unit": "µM"}
    ]},
    {"molecule": "CN(C)c1ccnc(C(=O)N/N=C2\\N=C(N)c3c2ccc2ccccc32)c1", "values": [
      {"measurement": "IC50", "setting": "[9]", "value": 0.018, "unit": "µM"}
    ]},
    {"molecule": "C[C@@](CO)(OP(=O)(O)O)[C@H](O)COP(=O)(O)CP(=O)(O)O", "values": [
      {"measurement": "fold change (FC)", "setting": "[10]", "value": 1.6}
    ]},
    {"molecule": "COCCS(=O)(=O)NCC#Cc1cn(C2CCCS2)c(=O)nc1N", "note": "(stereo unspecified)", "values": [
      {"measurement": "IC50", "setting": "[2]", "value": 30, "unit": "µM"},
      {"measurement": "IC50", "setting": "[3]", "value": "> 500", "unit": "µM"}
    ]},
    {"molecule": "NC1=N/C(=N\\NC(=O)c2cc(Cl)ccn2)c2ccc3ccccc3c21", "values": [
      {"measurement": "IC50", "setting": "[11]", "value": 7.2, "unit": "µM"}
    ]},
    {"molecule": "Nc1nc(=O)n(C2CCCO2)cc1C#CCNS(=O)(=O)C1CC1", "note": "(stereo unspecified)", "values": [
      {"measurement": "IC50", "setting": "[2]", "value": 2, "unit": "µM"}
    ]},
    {"molecule": "FC(F)(F)Oc1cccc(Cn2cnc3ccccc32)c1", "values": [
      {"measurement": "IC50", "setting": "[12]", "value": 595, "unit": "µM"}
    ]},
    {"molecule": "CC(C)(CO)C(=O)N(O)Cc1ccccc1Cl", "values": [
      {"measurement": "IC50", "setting": "[13]", "value": 3.1, "unit": "µM"},
      {"measurement": "MIC", "setting": "[14]", "value": 64, "unit": "µg/mL"}
    ]},
    {"molecule": "N#Cc1cnn2c(O)c(Cc3ccccc3)c(Cl)cc12", "values": [
      {"measurement": "IC50", "setting": "[1]", "value": 0.035, "unit": "µM"}
    ]},
    {"molecule": "O=C(CCCc1ccccc1)N(O)CCCP(=O)(O)O", "values": [
      {"measurement": "IC50", "setting": "[15]", "value": 17.8, "unit": "µM"},
      {"measurement": "IC50", "setting": "[16]", "value": 17.8, "unit": "µM"}
    ]}
  ]
}
